Results: patent publication US12508275B2, “Neomycin based compounds, and pharmaceutical use thereof” (UNIVERSITÉ COTE D'AZUR, priority 2019, dated 2025)

Key:
[1] = test system: Patient derived GSC (GB5); experiment: Effect of compound treatment on GSC phenotype (adhesion, morphology), GB5; assay type: cell-based, human; conditions: GB5, 10 uM, three days
Description: FIG. 1: phase contrast images of GB5 morphology untreated (CTL DMSO) or treated with the indicated compound (“Cpd” denotes compound) at the indicated concentration. Control cells grow as non-adherent spheroids composed of numerous GSC. When differentiated the cells become adherent and spread on the culture dish.
B—Cell culture: Patient-derived cells GB5 were isolated from surgical resection of human primary GBM provided by the department of neurosurgery of the University Hospital of Nice. TG6 (patient-derived cell from primary GBM) and HNNSC25 (Human Normal Neural Stem Cells) have been provided by Dr Hervé Chneiweiss, University of Pierre and Marie Curie, Paris. The resulting primary cultures (GB5, TG6, HNNSC25) were grown in NS34+ medium containing EGF and bFGF (DMEM-F12 1/1 ratio, 10 mM glutamine, 10 mM Hepes, 0.025% Sodium bicarbonate, N2, G5, and B27).
Patient derived GSC (GB5) were treated with growing concentration of Compounds 9a-b and 18a-b (10 to 100 uM) during three days). […] Similar results have been obtained with TG6.

[2] = test system: luminescent patient derived GSC orthotopic xenograft; experiment: Orthotopic xenograft of luminescent patient derived GSC, treatment from two weeks after injection; assay type: in vivo, nude mice
Method: FIG. 3: Nude mice were orthotopically xenografted by luminescent patient derived GSC. (A-B) Two weeks following injections, mice were intraperitoneally injected with 10 mg/kg (n=4), 7.5 mg/kg (n=4) or 5 mg/kg (n=4) of Compound 9a or vehicle alone as control (ctl n=10). A) graphical representation of the average of tumor growth in the control group (n=10) and in each Compound 9a treated groups. B) Survival of the whole population of mice of the untreated and treated groups were compared using a log rank test according to Kaplan Meier method. (R command, see World Wide Web: biostatgv.sentiweb.fr/?module=tests/surv). The solid line represents the survival rate of control untreated mice. The dotted line represents the survival rate of mice treated by compound 9a. C) Mice treatment with compound 9a when the tumors were already formed. Tumor growth representation in mice, treated either with DMSO (control: -♦-) or Compound 9a (-▪-). Tumor growth was controlled every week by live imaging. The solid line represents the tumor growth in control untreated mice. The dotted line represents the tumor growth in mice treated by compound 9a.
Nude mice were orthotopically xenografted by luminescent patient derived GSC. […]

[3] = test system: human endothelial cells (HUVEC); experiment: XTT toxicity assay on human endothelial cells; assay type: cell-based
Method: (§1) FIG. 4: Determination of compound toxicity on GSC and normal human cells. (A) GB5 were incubated with growing concentration of Compounds 9a-b and 18a. (B) human normal neural stem cell (NNSC), human normal kidney cells (NHEK), human normal hepatocytes (HEPRG) and (C) human endothelial cells (HUVEC) were treated with growing concentration of Compound 9a. 7 days later, the cells were subjected to an XTT assays as described in the method section. The results are the meaning of at least two separate experiments. Cell death was confirmed by trypan blue staining (not shown).
(§2) V—Toxicity tests: NNSC, GB5, TG6, HEK293, and HepaRG, HUVEC were seeded at 2000 cells/well in 96 wells plate in their respective culture mediums alone or containing growing concentration from 10 to 500 uM of Compounds 9a-b. Cultures were incubated 4 days and the cellular toxicity has been evaluated by XTT assays. Cell viability has been also assessed by counting living and dead cells with trypan blue staining.
XTT assays allows, through cell metabolism measurement, to determine a cytotoxic/cytostatic effects. Compounds 9a-b and 18a were tested for their eventual toxicity by XTT assays as described in the material and method section. At the working concentrations 10 to 25 uM, the compounds are not toxic for GSC (FIG. 4A). […]

[4] = test system: human kidney (NHEK); experiment: XTT toxicity assay on human kidney cells; assay type: cell-based
Method: as §1
HEK293 (human embryonic kidney cell) were grown in DMEM supplemented with glutamax and 10% foetal calf serum.
as §2
XTT assays allows, through cell metabolism measurement, to determine a cytotoxic/cytostatic effects. Compounds 9a-b and 18a were tested for their eventual toxicity by XTT assays as described in the material and method section. […]

NCCCCNCCCNC(=O)c1csc(-c2csc(CCNC(=O)CCc3cn(CC4OC(OC5C(O)C(N)CC(N)C5OC5OC(CN)C(O)C(O)C5N)C(O)C4OC4OC(CN)C(O)C(O)C4N)nn3)n2)n1 (stereo not shown) [Compound 9a, N-(3-((4-Aminobutyl)amino)propyl)-2′-(2-(3-(1-methyl-1H-1,2,3-triazol-4-yl)propanamido)ethyl)-[2,4′-bithiazole]-4-carboxamide-neomycin]
adhesion and changes in GSC morphology [1]: induced adhesion and changes in GSC morphology | treated mice that developed a tumor ([2]; intraperitoneal 10, 7.5 or 5 mg/kg, three days a week, all control mice developed a tumor): two mice above twelve | tumor initiation and development ([2]; intraperitoneal at 10 mg/kg, 7.5 mg/kg and 5 mg/kg): prevented tumor initiation and development | toxicity (XTT) ([3]; 100 uM and above): toxic | toxicity (XTT) ([3]; between 10 to 50 uM): not toxic | toxicity (XTT) ([4]; 100 uM and above): toxic | toxicity (XTT) ([4]; between 10 to 50 uM): not toxic
